How the values were obtained:
[1] = 101 kPa, Liquid
[2] = xn = mol fraction of the nth substance listed; details: 101 kPa, Liquid

CCCCO [butan-1-ol]
[1]
Details | mass density [kg/m3] | speed of sound [m/s] | viscosity [mPa·s]
293.15 K | 809.5 | 1257 | 2.941
298.15 K | 805.75 | 1240 | 2.571
303.15 K | 801.8 | 1224 | 2.255

C1CCCCC1 [cyclohexane]
[1]
Details | mass density [kg/m3] | speed of sound [m/s] | viscosity [mPa·s]
293.15 K | 778.62 | 1279 | 0.968
298.15 K | 773.92 | 1254 | 0.887
303.15 K | 769.19 | 1230 | 0.816

C1CCCC1 [cyclopentane]
[1]
Details | mass density [kg/m3] | speed of sound [m/s] | viscosity [mPa·s]
293.15 K | 744.52 | 1232 | 0.439
298.15 K | 739.55 | 1206 | 0.416
303.15 K | 734.54 | 1180 | 0.394

C1CCCC1 [cyclopentane] + CCCCO
[2]
Details | mass density, 293.15 K [kg/m3] | mass density, 298.15 K [kg/m3] | mass density, 303.15 K [kg/m3] | speed of sound, 293.15 K [m/s] | speed of sound, 298.15 K [m/s] | speed of sound, 303.15 K [m/s] | viscosity, 293.15 K [mPa·s] | viscosity, 298.15 K [mPa·s] | viscosity, 303.15 K [mPa·s]
x1 = 0.0446 | – | 802.7 | 798.9 | – | 1236 | 1218 | – | 2.388 | 2.108
x1 = 0.046 | 806.62 | – | – | 1252 | – | – | 2.714 | – | –
x1 = 0.0914 | 803.7 | – | – | 1248 | – | – | 2.541 | – | –
x1 = 0.0995 | – | 798.99 | 795.01 | – | 1229 | 1211 | – | 2.168 | 1.92
x1 = 0.1924 | 796.71 | 792.62 | 788.49 | 1239 | 1220 | 1201 | 2.095 | 1.855 | 1.651
x1 = 0.294 | 789.84 | – | – | 1230 | – | – | 1.683 | – | –
x1 = 0.312 | – | 784.43 | 780.13 | – | 1209 | 1189 | – | 1.499 | 1.349
x1 = 0.3875 | – | 779.26 | 774.85 | – | 1203 | 1182 | – | 1.233 | 1.108
x1 = 0.398 | 782.75 | – | – | 1223 | – | – | 1.358 | – | –
x1 = 0.5104 | – | 770.8 | 766.2 | – | 1194 | 1172 | – | 0.945 | 0.865
x1 = 0.5211 | 774.4 | – | – | 1215 | – | – | 1.014 | – | –
x1 = 0.6157 | – | 763.63 | 758.89 | – | 1189 | 1166 | – | 0.748 | 0.689
x1 = 0.6208 | 767.72 | – | – | 1211 | – | – | 0.807 | – | –
x1 = 0.7182 | 761.29 | – | – | 1209 | – | – | 0.654 | – | –
x1 = 0.7372 | – | 755.6 | 750.73 | – | 1186 | 1162 | – | 0.588 | 0.547
x1 = 0.8124 | 755.51 | – | – | 1210 | – | – | 0.555 | – | –
x1 = 0.8361 | – | 749.32 | 744.36 | – | 1187 | 1163 | – | 0.498 | 0.472
x1 = 0.9032 | – | 745.24 | 740.23 | – | 1191 | 1166 | – | 0.457 | 0.431
x1 = 0.9141 | 749.28 | – | – | 1216 | – | – | 0.48 | – | –
x1 = 0.9502 | – | 742.52 | 737.48 | – | 1195 | 1170 | – | 0.432 | 0.409
x1 = 0.9551 | 746.78 | – | – | 1220 | – | – | 0.456 | – | –
x1 = 1 | 744.52 | 739.55 | 734.54 | 1232 | 1206 | 1180 | 0.439 | 0.416 | 0.394

C1CCCC1 [cyclopentane] + CCCO
[2]
Details | mass density, 293.15 K [kg/m3] | mass density, 298.15 K [kg/m3] | mass density, 303.15 K [kg/m3] | speed of sound, 293.15 K [m/s] | speed of sound, 298.15 K [m/s] | speed of sound, 303.15 K [m/s] | viscosity, 293.15 K [mPa·s] | viscosity, 298.15 K [mPa·s] | viscosity, 303.15 K [mPa·s]
x1 = 0.0461 | 800.15 | 796.09 | 791.98 | 1219 | 1202 | 1184 | 2.035 | 1.809 | 1.613
x1 = 0.09 | 796.74 | 792.61 | 788.44 | 1216 | 1198 | 1180 | 1.859 | 1.655 | 1.479
x1 = 0.1885 | 789.64 | 785.36 | 781.04 | 1209 | 1190 | 1171 | 1.571 | 1.406 | 1.275
x1 = 0.2951 | 782.12 | 777.69 | 773.21 | 1204 | 1183 | 1163 | 1.284 | 1.159 | 1.052
x1 = 0.4056 | 774.79 | 770.22 | 765.59 | 1200 | 1178 | 1157 | 1.057 | 0.961 | 0.875
x1 = 0.5051 | 768.67 | 763.96 | 759.2 | 1199 | 1176 | 1153 | 0.867 | 0.79 | 0.725
x1 = 0.61 | 762.67 | 757.84 | 752.96 | 1199 | 1175 | 1152 | 0.712 | 0.656 | 0.608
x1 = 0.7109 | 757.16 | 752.26 | 747.29 | 1200 | 1176 | 1152 | 0.594 | 0.553 | 0.514
x1 = 0.8225 | 751.67 | 746.7 | 741.66 | 1206 | 1181 | 1156 | 0.507 | 0.476 | 0.448
x1 = 0.9134 | 747.4 | 742.5 | 737.43 | 1214 | 1188 | 1163 | 0.46 | 0.434 | 0.41
x1 = 0.9532 | 745.94 | 740.91 | 735.84 | 1219 | 1193 | 1168 | 0.447 | 0.422 | 0.4
x1 = 1 | 744.52 | 739.55 | 734.54 | 1232 | 1206 | 1180 | 0.439 | 0.416 | 0.394

From the NIST ThermoML archive (doi:10.1016/j.jct.2006.06.008)
